Source: ChEMBL document CHEMBL4406917, “Approaches for Prevention and Treatment of Neurodegenerative Diseases: ALS and Alzheimer's” (ACS Med Chem Lett, 2019)
Converted amounts (≈) assume the structure as drawn.

Experiments:
[1] = (§1) Activation of NF-KappaB (unknown origin) expressed in SH-SY5Y cells co-transfected with pNFkappaB-Luc plasmid measured after 24 hrs by Bright-Glo luciferase assay; format: cell-based; settings: Homo sapiens
SH-SY5Y = assay: as §1; format: cell-based; settings: Homo sapiens
[2] = Drug uptake in plasma of SOD1-G93A mutant-induced ALS C57BL/6 mouse model at 50 mg/kg, ip measured within 30 mins; format: ADME, organism-based; settings: in vivo, 0.5 h
[3] = Drug uptake in brain of SOD1-G93A mutant-induced ALS C57BL/6 mouse model at 50 mg/kg, ip measured within 30 mins; format: ADME, organism-based; settings: in vivo, 0.5 h
[4] = Toxicity in SOD1-G93A mutant-induced ALS C57BL/6 mouse model assessed as effect on animal survival at 50 mg/kg, ip; format: organism-based; settings: in vivo
[5] = Kinetic solubility of compound at pH 7.4 by shake flask method; format: physicochemical; settings: buffer, read-out: Kinetic_solubility

Row | Compound | EC50 [1] [µM] | ECmax (SH-SY5Y) [µM] | Drug uptake [2] | Drug uptake [3] | Activity [4] | solubility kinetic [5] [µM]
1 | Cc1cccnc1Nc1nc(-c2ccccn2)cs1 | 0.21 | 40 | Active | Active | Non-Toxic | –
2 | O=C(O)c1cccc(-c2cnc(Nc3ccccc3F)o2)c1 | – | 23.5 | – | – | – | 56 (≈ 16.7 µg/mL)
3 | O=C(/C=C\Nc1ccccc1Br)c1ccc2c(c1)OCO2 | 0.5 | 26 | Active | Active | Non-Toxic | –
4 | COC(=O)c1ccc(-c2cnc(Nc3c(F)cccc3F)o2)cc1 | – | 42.6 | – | – | – | –
